Patent US20130165464A1, “HETEROARYLS AND USES THEREOF” (MILLENNIUM PHARMACEUTICALS, INC., priority 2011, published 2013)

Biological target: T1, VPS34 (Homo sapiens, UniProt Q8NEB9)
T1 construct: GST (N); host or cells: SF9 insect cells (baculovirus)
Test: Human VPS34 enzyme assay (Adapta TR-FRET)
Assay type: biochemical
Conditions: for inhibition at 1.11 µM: 1 h, at a 1.11 μM concentration, read-out: VPS34 Percent Inhibition
Procedure: VPS34 (accession number GB:BCO33004) was cloned into pDEST20-Thombin as N-terminal GST tagged fusion proteins using the Gateway system (Invitrogen, catalog#11804-013). The sequences were verified before recombinant protein expression using the Baculovirus Expression System with Gateway® Technology.
For expression VPS34 was infected at 1MOI in SF9 cells and harvested 72 hours post infection.
For purification, VPS34 is purified by Glutathione Sepharose 4 Fast Flow (GE Healthcare #17-5132-03) followed by HiTrap Q (GE Healthcare #17-1153-01).
Human VPS34 Enzyme Assay Method
100 nL compounds in DMSO are added to wells of a 384 well microtitre plate (Greiner 780076). At room temperature: 5 ul VPS34 reaction buffer (Invitrogen Assay Buffer Q (diluted 1 in 5 with nanopure water) plus 2 mM DTT and 2 mM MnCl2) containing ATP (20 uM, Promega) and 200 uM PI-PS substrate (Invitrogen PV5122) is added followed immediately by 5 ul VPS34 reaction buffer (as above) containing VPS34 (5 nM, Millennium Protein Sciences Group) and the mixture is incubated with shaking at room temperature for 1 hour. Then 5 ul VPS34 stop-detect mix (as per Invitrogen Adapta Assay kit (PV5009) instructions (contains kinase quench buffer, TR-FRET buffer, Adapta Eu anti-ADP antibody and Alexa Fluor 647 ADP tracer)) is added to quench the reaction. The plates are then incubated for 30 minutes at room temperature with shaking and then read on a BMG PheraStar Plus reader.
For the assay methods described above, test compound percent inhibition, at various concentrations, is calculated relative to control (DMSO and EDTA) treated samples. Compound concentration versus percent inhibition curves are fitted to generate IC50 values. One skilled in the art will appreciate that the values generated either as percentage inhibition at a single concentration or IC50 values are subject to experimental variation.

T1 sequence (Q8NEB9 whole entry): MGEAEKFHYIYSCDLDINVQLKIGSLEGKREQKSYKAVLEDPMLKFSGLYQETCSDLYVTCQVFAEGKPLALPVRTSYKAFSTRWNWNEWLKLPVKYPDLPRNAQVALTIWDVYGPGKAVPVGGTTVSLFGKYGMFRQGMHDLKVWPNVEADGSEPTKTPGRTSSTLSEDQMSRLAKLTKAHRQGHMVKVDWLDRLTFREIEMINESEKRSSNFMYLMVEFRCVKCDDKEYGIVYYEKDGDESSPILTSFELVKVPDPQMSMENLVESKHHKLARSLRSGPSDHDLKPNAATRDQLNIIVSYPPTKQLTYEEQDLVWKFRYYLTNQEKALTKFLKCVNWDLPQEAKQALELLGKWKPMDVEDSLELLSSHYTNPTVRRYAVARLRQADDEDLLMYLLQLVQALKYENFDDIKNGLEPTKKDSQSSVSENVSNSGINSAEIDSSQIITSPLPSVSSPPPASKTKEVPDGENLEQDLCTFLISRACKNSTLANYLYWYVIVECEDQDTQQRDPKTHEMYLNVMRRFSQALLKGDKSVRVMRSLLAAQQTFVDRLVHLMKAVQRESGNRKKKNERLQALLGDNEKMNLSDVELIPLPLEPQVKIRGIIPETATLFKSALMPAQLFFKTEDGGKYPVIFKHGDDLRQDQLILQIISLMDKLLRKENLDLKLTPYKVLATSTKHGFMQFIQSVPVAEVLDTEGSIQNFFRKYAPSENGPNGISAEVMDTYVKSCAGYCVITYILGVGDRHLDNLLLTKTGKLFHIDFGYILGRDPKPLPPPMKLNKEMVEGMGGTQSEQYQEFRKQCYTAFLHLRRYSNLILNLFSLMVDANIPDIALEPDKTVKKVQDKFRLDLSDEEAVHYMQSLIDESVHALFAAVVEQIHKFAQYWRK

SMILES | inhibition at 1.11 µM [%] | IC50 [µM]
COC(=O)Nc1cc(-n2cc(C(N)=O)c(-c3cc(CN4CCCC4)ccc3Cl)c2)c(C)cn1 [I-80, methyl (4-{3-carbamoyl-4-[2-chloro-5-(pyrrolidin-1-ylmethyl)phenyl]-1H-pyrrol-1-yl}-5-methylpyridin-2-yl)carbamate] | > 99 | 
CC(=O)Nc1cc(-n2cc(C(N)=O)c(-c3cc(CN(C)C)ccc3Cl)c2)c(C)cn1 [I-70, 1-(2-acetamido-5-methylpyridin-4-yl)-4-{2-chloro-5-[(dimethylamino)methyl]phenyl}-1H-pyrrole-3-carboxamide] | 20 | 1 to 5
CC(=O)Nc1cc(-n2cc(C(N)=O)c(-c3ccccc3Cl)n2)c(C)cn1 [I-11, 1-(2-acetamido-5-methylpyridin-4-yl)-3-(2-chlorophenyl)-1H-pyrazole-4-carboxamide] | 96 | 0.15 to 1
CCC(=O)Nc1cc(-n2cc(C(N)=O)c(-c3ccccc3Cl)c2)c(C)cn1 [I-28, 4-(2-chlorophenyl)-1-[5-methyl-2-(propionylamino)pyridin-4-yl]-1H-pyrrole-3-carboxamide] | > 99 | < 0.05
COC(=O)Nc1cc(-n2cc(C(N)=O)c(-c3ccccc3Cl)c2)c(C)cn1 [I-36, methyl {4-[3-carbamoyl-4-(2-chlorophenyl)-1H-pyrrol-1-yl]-5-methylpyridin-2-yl}carbamate] | > 99 | < 0.05
COCCC(=O)Nc1cc(-n2cc(C(N)=O)c(-c3ccccc3Cl)c2)c(C)cn1 [I-79, 4-(2-chlorophenyl)-1-{2-[(3-methoxypropanoyl)amino]-5-methylpyridin-4-yl}-1H-pyrrole-3-carboxamide] | > 99 | 
COc1ccc(-c2nn(-c3cc(NC(C)=O)ncc3C)cc2-c2nc[nH]n2)c(Cl)c1 [I-35, N-{4-[3-(2-chloro-4-methoxyphenyl)-4-(1H-1,2,4-triazol-3-yl)-1H-pyrazol-1-yl]-5-methylpyridin-2-yl}acetamide] | > 99 | < 0.05
CCC(=O)Nc1cc(-n2cc(-c3nc[nH]n3)c(-c3ccccc3Cl)c2)c(C)cn1 [I-50, N-{4-[3-(2-chlorophenyl)-4-(1H-1,2,4-triazol-3-yl)-1H-pyrrol-1-yl]-5-methylpyridin-2-yl}propanamide] | > 99 | < 0.05
CC(=O)Nc1cc(-n2cc(-c3nc[nH]n3)c(-c3cc(CN(C)C)ccc3Cl)c2)c(C)cn1 [I-76, N-{4-[3-{2-chloro-5-[(dimethylamino)methyl]phenyl}-4-(1H-1,2,4-triazol-3-yl)-1H-pyrrol-1-yl]-5-methylpyridin-2-yl}acetamide] | 23 | 1 to 5
O=C(O)c1cn(-c2ccnc(NCCc3ccccc3)n2)nc1-c1ccccc1Cl [I-30, 3-(2-chlorophenyl)-1-{2-[(2-phenylethyl)amino]pyrimidin-4-yl}-1H-pyrazole-4-carboxylic acid] | 14 | 1 to 5
COC(=O)Nc1cc(-n2cc(-c3nc[nH]n3)c(-c3ccccc3Cl)c2)c(C)cn1 [I-55, methyl {4-[3-(2-chlorophenyl)-4-(1H-1,2,4-triazol-3-yl)-1H-pyrrol-1-yl]-5-methylpyridin-2-yl}carbamate] | > 99 | < 0.05
CC(=O)Nc1cc(-n2cc(C(N)=O)c(-c3ccccc3Cl)c2)c(C)cn1 [I-41, 1-(2-acetamido-5-methylpyridin-4-yl)-4-(2-chlorophenyl)-1H-pyrrole-3-carboxamide] | 78 | 
CC(=O)Nc1cc(-n2cc(-c3nc[nH]n3)c(-c3cc(CN(C)C)ccc3Cl)n2)c(C)cn1 [I-42, N-{4-[3-{2-chloro-5-[(dimethylamino)methyl]phenyl}-4-(1H-1,2,4-triazol-3-yl)-1H-pyrazol-1-yl]-5-methylpyridin-2-yl}acetamide] | > 99 | < 0.05
Cc1cnc(NC(=O)C2CC2)cc1-n1cc(-c2nc[nH]n2)c(-c2ccc(Cl)cc2Cl)n1 [I-67, N-{4-[3-(2,4-dichlorophenyl)-4-(1H-1,2,4-triazol-3-yl)-1H-pyrazol-1-yl]-5-methylpyridin-2-yl}cyclopropanecarboxamide] | > 99 | 
CC(=O)Nc1cc(-n2cc(-c3ccn[nH]3)c(-c3ccccc3Cl)n2)ccn1 [I-25, N-{4-[3′-(2-chlorophenyl)-1H,1′H-3,4′-bipyrazol-1′-yl]pyridin-2-yl}acetamide] | > 99 | < 0.05
CC(=O)Nc1cc(-n2cc(-c3nc[nH]n3)c(-c3ccccc3S(C)(=O)=O)c2)ccn1 [I-38, N-(4-{3-[2-(methylsulfonyl)phenyl]-4-(1H-1,2,4-triazol-3-yl)-1H-pyrrol-1-yl}pyridin-2-yl)acetamide] | > 99 | 
CC(=O)Nc1cc(-n2cc(-c3ncc[nH]3)c(-c3ccccc3Cl)n2)ccn1 [I-32, N-{4-[3-(2-chlorophenyl)-4-(1H-imidazol-2-yl)-1H-pyrazol-1-yl]pyridin-2-yl}acetamide] | > 99 | < 0.05
CC(=O)Nc1cc(-n2nc(-c3ccccc3Cl)c(-c3nc[nH]n3)c2Br)c(Br)cn1 [I-4, N-{5-bromo-4-[5-bromo-3-(2-chlorophenyl)-4-(1H-1,2,4-triazol-3-yl)-1H-pyrazol-1-yl]pyridin-2-yl}acetamide] | 18 | 1 to 5
CC(=O)Nc1cc(-n2cc(-c3nc[nH]n3)c(-c3ccccc3Cl)n2)ccn1 [I-12, N-{4-[3-(2-chlorophenyl)-4-(1H-1,2,4-triazol-3-yl)-1H-pyrazol-1-yl]pyridin-2-yl}acetamide] | > 99 | < 0.05
Cc1cnc(NC(=O)C2CC2)cc1-n1cc(C(N)=O)c(-c2cc(CN3CCCC3)ccc2Cl)c1 [I-71, 4-[2-chloro-5-(pyrrolidin-1-ylmethyl)phenyl]-1-{2-[(cyclopropylcarbonyl)amino]-5-methylpyridin-4-yl}-1H-pyrrole-3-carboxamide] | > 99 | 0.15 to 1
CC(=O)Nc1cc(-n2cc(C(=O)O)c(-c3ccccc3Cl)n2)c(C)cn1 [I-6, 1-(2-acetamido-5-methylpyridin-4-yl)-3-(2-chlorophenyl)-1H-pyrazole-4-carboxylic acid] | 97 | 0.15 to 1
Cc1cnc(NC(=O)C2CC2)cc1-n1cc(CO)c(-c2ccccc2Cl)n1 [I-63, N-{4-[3-(2-chlorophenyl)-4-(hydroxymethyl)-1H-pyrazol-1-yl]-5-methylpyridin-2-yl}cyclopropanecarboxamide] | 62 | 0.15 to 1
CC(=O)Nc1cc(-n2cc(-c3nc[nH]n3)c(-c3ccc(C(F)(F)F)cc3Cl)n2)c(C)cn1 [I-66, N-(4-{3-[2-chloro-4-(trifluoromethyl)phenyl]-4-(1H-1,2,4-triazol-3-yl)-1H-pyrazol-1-yl}-5-methylpyridin-2-yl)acetamide] | 89 | 0.15 to 1
O=C(Nc1cc(-n2cc(-c3nc[nH]n3)c(-c3ccccc3Cl)n2)c(F)cn1)C1CC1 [I-56, N-{4-[3-(2-chlorophenyl)-4-(1H-1,2,4-triazol-3-yl)-1H-pyrazol-1-yl]-5-fluoropyridin-2-yl}cyclopropanecarboxamide] | > 99 | < 0.05
NC(=O)c1cn(-c2ccnc3[nH]ccc23)nc1-c1ccccc1Cl [I-7, 3-(2-chlorophenyl)-1-(1H-pyrrolo[2,3-b]pyridin-4-yl)-1H-pyrazole-4-carboxamide] | 88 | 0.15 to 1
COc1ccccc1-c1nn(-c2cc(NC(C)=O)ncc2C)cc1-c1nc[nH]n1 [I-49, N-{4-[3-(2-methoxyphenyl)-4-(1H-1,2,4-triazol-3-yl)-1H-pyrazol-1-yl]-5-methylpyridin-2-yl}acetamide] | 56 | 0.15 to 1
CC(=O)Nc1cc(-n2cc(C(N)=O)c(-c3ccccc3Cl)c2)ccn1 [I-2, 1-(2-acetamidopyridin-4-yl)-4-(2-chlorophenyl)-1H-pyrrole-3-carboxamide] | > 99 | < 0.05
CC(=O)Nc1cc(-n2cc(-c3nc[nH]n3)c(-c3ccccc3C(F)(F)F)n2)c(C)cn1 [I-48, N-(5-methyl-4-{4-(1H-1,2,4-triazol-3-yl)-3-[2-(trifluoromethyl)phenyl]-1H-pyrazol-1-yl}pyridin-2-yl)acetamide] | > 99 | 
COC(=O)Nc1cc(-n2cc(-c3nc[nH]n3)c(-c3ccccc3Cl)n2)ccn1 [I-17, methyl {4-[3-(2-chlorophenyl)-4-(1H-1,2,4-triazol-3-yl)-1H-pyrazol-1-yl]pyridin-2-yl}carbamate] | > 99 | < 0.05
COCCC(=O)Nc1cc(-n2cc(-c3nc[nH]n3)c(-c3ccccc3Cl)c2)c(C)cn1 [I-74, N-{4-[3-(2-chlorophenyl)-4-(1H-1,2,4-triazol-3-yl)-1H-pyrrol-1-yl]-5-methylpyridin-2-yl}-3-methoxypropanamide] | > 99 | 
